# Test results: publication PMC11599599, “Synthesis, characterization, molecular docking, pharmacokinetics, and molecular dynamics of new bis-thiazoles based on bis-thiosemicarbazone as anti-coxsackievirus” (Scientific Reports, 2024)
# What was measured:
# Cox B virus [1] = assay: Mechanism of virus inhibition: viral replication; assay type: cell-based; settings: for Viral count (treated): Replication, control 1.6 × 10^7
# Procedure: (§1) For a compound having an antiviral effect, this might be due to the effect on viral replication, the effect on viral adsorption, or the direct effect on the viral particle.
# Viral replication[48] Assay was carried out in a 6-well plate where Vero cells were cultivated (10^5 cells/ml) for 1 day at 37 °C. The cells were directly inoculated with the virus. After an hour of incubation, unadsorbed viral particles were eliminated by repeatedly washing the cells with PBS.
# The compound was applied at different concentrations, and after 1 h contact time, 2 mL of DMEM medium supplemented with 2% agarose were added to the cell monolayer. Plates were left to solidify then incubated till the appearance of plaques.
# Cox B virus [2] = assay: Mechanism of virus inhibition: virucidal; assay type: cell-based; settings: for Viral count (treated): Virucidal, control 1.6 × 10^7
# Procedure: For a compound having an antiviral effect, this might be due to the effect on viral replication, the effect on viral adsorption, or the direct effect on the viral particle. Virucidal[50] the assay was conducted in a 6-well plate with Vero cells that were cultured for two days at 37 °C (10^5 cells/mL). A volume of […] serum-free DMEM containing 1.5 × 10^2 PFU from Cox B was added to the concentration of the compound resulting in viral inhibition, after 1 h incubation, The mixture was diluted three times using serum-free media, which leaves almost no extract but still permits the existence of virus particles to develop on Vero cells. 100 mL of each dilution was then introduced to the Vero cell monolayer. The DMEM overlayer was added to the cell monolayer after a one-hour contact period. The plates were left to solidify then incubated till the appearance of plaques.
# Cox B virus [3] = assay: Plaque reduction assay against Cox B virus; assay type: cell-based; settings: for inhibition at 20 µg/mL / inhibition at 40 µg/mL: Vero
# Procedure: (§2) Compounds: 10 mg were dissolved in 1 mL (10% DMSO and 90% deionized water), sterilized by 1% antibiotic–antimycotic mixture and stored in −20.
# (§3) Cells: Vero cell line was used. The cells were propagated in DMEM medium (Lonza, USA) supplemented with 10% fetal bovine serum (Gibco, USA), 1% antibiotic–antimycotic mixture (Lonza, USA).
# Virus: Cox B virus was propagated and titrated to give final count of 0.9 × 10^5 viral particle/mL.
# This test was done according to Tebas et al.[47], In a 12-well plate Vero cells (10^5 cells/mL) were cultivated for 1 day at 37 °C. The Cox B virus was mixed with the safe concentration of the compound and incubated for 1 h at 37 °C before being added to the cells. Following the removal of the growth media, the cells were injected with virus-extract combinations ([…]) and then rinsed with PBS (Phosphate Buffer Saline). Following a one-hour contact period for virus adsorption, the cell monolayer was supplemented with one milliliter of Dulbecco’s Modified Eagles Media (DMEM) containing 2% agarose. The plates were then allowed to solidify and incubated at 37 °C until the development of viral plaques. Formalin (10%) was added for 2 h then plates were stained with crystal violet. Control wells were included where untreated virus was incubated with Vero cells and finally plaques were counted and percentage reduction in plaques formation in comparison to control wells was recorded as following:
# % inhibition = (viral count(untreated) - viral count(treated))/viral count(untreated)X100.
# Vero cells = assay: Cytotoxicity assay on Vero cells (microscopic morphology); assay type: cell-based; set-up: key to Cytotoxicity on Vero cells (cell sheet affected): -: Safe concentration; + 1, +2, + 3, +4: about 25, 50, 75, 100% of cell sheet was affected respectively; + 1, +2, + 3, +4: about 25, 50, 75, 100% of cell sheet was affected respectively; + 1, +2, + 3, +4: about 25, 50, 75, 100% of cell sheet was affected respectively; + 1, +2, + 3, +4: about 25, 50, 75, 100% of cell sheet was affected respectively; M: masked (color of compounds made cells unseen); settings: for Cytotoxicity on Vero cells (cell sheet affected): 24 h, morphological changes; for Safety effect on Vero cells (in words): Table 1, 24 h
# Procedure: as §2, §3
# Cytotoxic effect of compounds was measured by inoculation different doses of compounds on tested cells then examining them microscopically after 24 h to determine any morphological changes that appeared on cells as a result of being subjected to the compounds[46]. Vero cells were seeded onto 96-well plates, which were then incubated for the whole night. After a 24-hour incubation period at 37 °C in a humidified incubator with 5% CO2, compounds were injected at concentrations of 10, 20, 30, 40, 50, 60, 70, 80, 90, and 100 µg /100 µl. Any morphological changes were monitored under a microscope.
# Cox B virus [4] = assay: Mechanism of virus inhibition: viral adsorption; assay type: cell-based; settings: for Viral count (treated): Adsorption, control 1.6 × 10^7
# Procedure: as §1
# Viral adsorption[49] Vero cells were cultivated in a 6-well plate (10^5 cells/mL) for 1 day at 37 °C. The compound was applied at different concentrations in […] medium without supplements and coincubated with the cells for 2 h at 4 °C. The virus was coincubated with the pretreatment cells for one hour after the unadsorbed extract was eliminated by washing the cells three times in PBS. Next, 2 mL of DMEM supplemented with 2% agarose were added. The plates were left to solidify and incubated till the appearance of plaques.
compound,measurement,setting,value
"COc1ccc(OC)c(C=C2/C(=N/Nc3nc(C)c(/N=N/c4ccccc4)s3)c3ccccc3/C2=N\Nc2nc(C)c(/N=N/c3ccccc3)s2)c1 [7a, 2,2’-(((1E,3E)−2-(2,5-dimethoxybenzylidene)−1H-indene-1,3(2H)-diylidene)bis(hydrazin-1-yl-2-ylidene))bis(4-methyl-5-((E)-phenyldiazenyl)thiazole)]",Effect on viral replication (in words),Cox B virus [1],inhibiting both viral adsorption and replication
same,inhibition at 20 µg/mL,Cox B virus [1],37%
same,inhibition at 40 µg/mL,Cox B virus [1],48%
same,inhibition at 60 µg/mL,Cox B virus [1],56%
same,Viral count (treated),Cox B virus [1]; 20 µg/ml,1 × 10^7
same,Viral count (treated),Cox B virus [1]; 40 µg/ml,0.8 × 10^7
same,Viral count (treated),Cox B virus [1]; 60 µg/ml,0.7 × 10^7
same,inhibition at 20 µg/mL,Cox B virus [2],0%
same,inhibition at 40 µg/mL,Cox B virus [2],12%
same,inhibition at 60 µg/mL,Cox B virus [2],37%
same,Viral count (treated),Cox B virus [2]; 20 µg/ml,1.6 × 10^7
same,Viral count (treated),Cox B virus [2]; 40 µg/ml,1.4 × 10^7
same,Viral count (treated),Cox B virus [2]; 60 µg/ml,1 × 10^7
same,Viral count (treated),Cox B virus [3]; 20 ug/mL,0.54 × 10 ^7
same,Viral count (treated),Cox B virus [3]; 40 ug/mL,0 × 10 ^7
same,inhibition at 20 µg/mL,Cox B virus [3],66%
same,inhibition at 40 µg/mL,Cox B virus [3],100%
same,Antiviral activity against Cox B virus (in words),Cox B virus [3]; at tested concentrations,high viral inhibition
same,Cytotoxicity on Vero cells (cell sheet affected),Vero cells; 10 µg/100µl,-
same,Cytotoxicity on Vero cells (cell sheet affected),Vero cells; 20 µg/100µl,-
same,Cytotoxicity on Vero cells (cell sheet affected),Vero cells; 30 µg/100µl,-
same,Cytotoxicity on Vero cells (cell sheet affected),Vero cells; 40 µg/100µl,-
same,Cytotoxicity on Vero cells (cell sheet affected),Vero cells; 50 µg/100µl,-
same,Cytotoxicity on Vero cells (cell sheet affected),Vero cells; 70 µg/100µl,M
same,Cytotoxicity on Vero cells (cell sheet affected),Vero cells; 80 µg/100µl,M
same,Cytotoxicity on Vero cells (cell sheet affected),Vero cells; 90 µg/100µl,M
same,Cytotoxicity on Vero cells (cell sheet affected),Vero cells; 100 µg/100µl,M
same,Safety effect on Vero cells (in words),Vero cells,dense and coloured that made masking to the cell sheet
same,Effect on viral adsorption (in words),Cox B virus [4],inhibiting both viral adsorption and replication
same,inhibition at 20 µg/mL,Cox B virus [4],42%
same,inhibition at 40 µg/mL,Cox B virus [4],57%
same,inhibition at 60 µg/mL,Cox B virus [4],85%
same,Viral count (treated),Cox B virus [4]; 20 µg/ml,0.92 × 10^7
same,Viral count (treated),Cox B virus [4]; 40 µg/ml,0.68 × 10^7
same,Viral count (treated),Cox B virus [4]; 60 µg/ml,0.24 × 10^7
"COc1ccc(OC)c(C=C2/C(=N/NC3=NC(=O)CS3)c3ccccc3/C2=N\NC2=NC(=O)CS2)c1 [9a, 2,2’-(((1E,3E)−2-(2,5-dimethoxybenzylidene)−1H-indene-1,3(2H)-diylidene)bis(hydrazin-1-yl-2-ylidene))bis(thiazol-4(5H)-one)]",Viral count (treated),Cox B virus [3]; 20 ug/mL,1.6 × 10^7
same,Viral count (treated),Cox B virus [3]; 40 ug/mL,1.6 × 10^7
same,inhibition at 20 µg/mL,Cox B virus [3],0%
same,inhibition at 40 µg/mL,Cox B virus [3],0%
same,Cytotoxicity on Vero cells (cell sheet affected),Vero cells; 10 µg/100µl,-
same,Cytotoxicity on Vero cells (cell sheet affected),Vero cells; 20 µg/100µl,-
same,Cytotoxicity on Vero cells (cell sheet affected),Vero cells; 30 µg/100µl,-
same,Cytotoxicity on Vero cells (cell sheet affected),Vero cells; 40 µg/100µl,-
same,Cytotoxicity on Vero cells (cell sheet affected),Vero cells; 50 µg/100µl,-
same,Cytotoxicity on Vero cells (cell sheet affected),Vero cells; 60 µg/100µl,-
same,Safety effect on Vero cells (in words),Vero cells,highly toxic at low concentration
same,melting point,,130 to 132 °C
"COc1ccc(OC)c(C=C2C(=NNC(N)=S)c3ccccc3C2=NNC(N)=S)c1 [compound 3, 2,2’-((1E,3Z)−2-((E)−2,5-dimethoxybenzylidene)−1H-indene-1,3(2H)-diylidene)bis-(hydrazine-1-carbothioamide)]",Viral count (treated),Cox B virus [3]; 20 ug/mL,1.24 × 10^7
same,Viral count (treated),Cox B virus [3]; 40 ug/mL,0.72 × 10^7
same,inhibition at 20 µg/mL,Cox B virus [3],22%
same,inhibition at 40 µg/mL,Cox B virus [3],55%
same,Cytotoxicity on Vero cells (cell sheet affected),Vero cells; 10 µg/100µl,-
same,Cytotoxicity on Vero cells (cell sheet affected),Vero cells; 20 µg/100µl,-
same,Cytotoxicity on Vero cells (cell sheet affected),Vero cells; 30 µg/100µl,-
same,Cytotoxicity on Vero cells (cell sheet affected),Vero cells; 40 µg/100µl,-
same,Cytotoxicity on Vero cells (cell sheet affected),Vero cells; 50 µg/100µl,-
same,Cytotoxicity on Vero cells (cell sheet affected),Vero cells; 60 µg/100µl,-
same,Cytotoxicity on Vero cells (cell sheet affected),Vero cells; 70 µg/100µl,-
same,Cytotoxicity on Vero cells (cell sheet affected),Vero cells; 80 µg/100µl,-
same,Cytotoxicity on Vero cells (cell sheet affected),Vero cells; 90 µg/100µl,-
same,Cytotoxicity on Vero cells (cell sheet affected),Vero cells; 100 µg/100µl,-
same,Safety effect on Vero cells (in words),Vero cells,higher safety
same,melting point,,231 to 233 °C
"COc1ccc(OC)c(C=C2/C(=N/Nc3nc(-c4ccccc4)cs3)c3ccccc3/C2=N\Nc2nc(-c3ccccc3)cs2)c1 [compound 13, 2,2’-(((1E,3E)−2-(2,5-dimethoxybenzylidene)−1H-indene-1,3(2H)-diylidene)bis(hydrazin-1-yl-2-ylidene))bis(4-phenylthiazole)]",Viral count (treated),Cox B virus [3]; 20 ug/mL,1.6 × 10^7
same,Viral count (treated),Cox B virus [3]; 40 ug/mL,1.6 × 10^7
same,inhibition at 20 µg/mL,Cox B virus [3],0%
same,inhibition at 40 µg/mL,Cox B virus [3],0%
same,Cytotoxicity on Vero cells (cell sheet affected),Vero cells; 10 µg/100µl,-
same,Cytotoxicity on Vero cells (cell sheet affected),Vero cells; 20 µg/100µl,-
same,Cytotoxicity on Vero cells (cell sheet affected),Vero cells; 30 µg/100µl,-
same,Cytotoxicity on Vero cells (cell sheet affected),Vero cells; 40 µg/100µl,-
same,Cytotoxicity on Vero cells (cell sheet affected),Vero cells; 50 µg/100µl,-
same,Cytotoxicity on Vero cells (cell sheet affected),Vero cells; 60 µg/100µl,-
same,Cytotoxicity on Vero cells (cell sheet affected),Vero cells; 70 µg/100µl,-
same,Cytotoxicity on Vero cells (cell sheet affected),Vero cells; 80 µg/100µl,-
same,Cytotoxicity on Vero cells (cell sheet affected),Vero cells; 90 µg/100µl,-
same,Cytotoxicity on Vero cells (cell sheet affected),Vero cells; 100 µg/100µl,-
same,Safety effect on Vero cells (in words),Vero cells,higher safety
same,melting point,,193 to 195 °C
